These are literature values, as cited in US20090017243A1, “Conveyor lubricant, passivation of a thermoplastic container to stress cracking and thermoplastic stress crack inhibitor” (Ecolab Inc., priority 1999, published 2009).

For the data set the following is noted: 96 wt. % solution of glycerol in water.

Turning to `OCC(O)CO` [glycerol], the specific gravity was 1.25.
